Laboratory results reported in patent US11242337B2, “Compounds useful for treating gastrointestinal tract disorders” (Ardelyx, Inc., priority 2017, dated 2022).

Experiments:
[1] = system: human ileum monolayer culture; test: Sustained inhibition of apical acid secretion in human organoid monolayer cell cultures (ileum); type: cell-based; settings: Homo sapiens, 48 h; 1 μM apical, dosed day 6, apical media pH day 8, vs DMSO
Procedure: (§1) Basal media (BM) consisted of advanced DMEM/F12 containing 10 mM HEPES Invitrogen, 15630-080), 1:100 Glutamax (Invitrogen, 35050-061), and 1:100 penicillin/streptomycin (Invitrogen, 15140-122). Supplemented basal media (SBM) contained 1:100 N2 (Invitrogen, 17502-048), 1:50 B27 (Invitrogen, 12587-010), 1 mM N-acetylcysteine (Sigma, A9165), and 10 nM [Leu15]-gastrin I (Sigma, G9145). Growth factors used included 50 ng per mL mouse EGF (Peprotech, 315-09), 100 ng per mL mouse noggin (Peprotech, 250-38), 500 ng per mL human R-spondin 1 (R&D, 4645-RS), 100 ng per mL mouse Wnt-3a (R&D, 1324-WN), 20 μM. Y-27632 (Tocris, 1254), 10 mM nicotinamide (Sigma, N0636), 500 nM A83-01 (Tocris, 2939), 10 μM SB202190 (Tocris, 1264). Transwells were 0.4 μm pore polyester membrane 24-well Transwell inserts (Corning). Cultures were incubated at 37° C. in 5% CO2.
(§2) Human ileum organoids were cultured in WENRNAS (Wnt, EGF, noggin, R-spondin1, Nicotinamide, A83-01, SB202190) and typically grown for 7-12 days before being used to plate monolayer cultures. On day 0, organoid cultures embedded in Matrigel were treated with TrypLE Express to break organoids into small pieces and/or single cells. The cells were resuspended to 0.5×10^6 cells/mL in SBM containing WENRAY (Wnt, EGF, noggin, R-spondin1, A83-01, Y-27632). Following this step, 200 μL of cell suspension was plated into the apical side of a 24-well Transwell (100,000 cells/well) and 600 μL of SBM with WENRAY was added to the basolateral side. Ileum cells were differentiated with ENRA (EGF, noggin, R-spondin 1, A83-01) on day 3. The color of apical compartment turns from pink or orange to yellow due to the increase in NHE3 expression after differentiation.
(§3) Each human ileum monolayer culture well was washed twice with fresh SBM on the apical side on day 6 before compound dosing. All compound stocks were 10 mM dissolved in DMSO. Each compound stock was individually mixed with fresh SBM to reach final compound concentration 1 μM and dosed only on the apical side of the monolayer (total volume 200 μl). DMSO at the equivalent concentration was used as the vehicle control. Duplicate wells were dosed for each compound. On day 8, apical media pH was measured by pH electrode, to determine the ability of example compounds to produce sustained inhibition of NHE3 activity in a human monolayer culture system by preventing proton secretion into the apical compartment.

[2] = system: human duodenum monolayer culture; test: Sustained inhibition of apical acid secretion in human organoid monolayer cell cultures (duodenum); type: cell-based; settings: Homo sapiens
Procedure: as §1, §3
as §2, with “Human duodenum” for “Human ileum”, “side. Duodenum” for “side. Ileum”, “with ENA” for “with ENRA”, “noggin,” for “noggin, R-spondin 1,”

`Cc1cc(Cl)cc2c1C[C@H](N1CCC[C@@H](N(C)C)C1)[C@H]2Oc1ccc(S(=O)(=O)NCCOCCOCCNC(=O)NCCCCNC(=O)NCCOCCOCCNS(=O)(=O)c2ccc(O[C@H]3c4cc(Cl)cc(C)c4C[C@@H]3N3CCC[C@@H](N(C)C)C3)cc2)cc1` [Example 28, 3-[2-(2-[2-[(4-[[(1S,2S)-6-Chloro-2-[(3R)-3-(dimethylamino)piperidin-1-yl]-4-methyl-2,3-dihydro-1H-inden-1-yl]oxy]benzene)sulfonamido]ethoxy]ethoxy)ethyl]-1-[4-([[2-(2-[2-[(4-[[(1S,2S)-6-chloro-2-[(3R)-3-(dimethylamino)piperidin-1-yl]-4-methyl-2,3-dihydro-1H-inden-1-yl]oxy]benzene)sulfonamido]ethoxy]ethoxy)ethyl]carbamoyl]amino)butyl]urea; bis(trifluoroacetic acid)] gave an inhibition at 1 µM [1] of 50 to 70% and an inhibition at 1 µM [2] of 50 to 70%.
Work on `Cc1cc(S(=O)(=O)NCCOCCOCCNC(=O)NCCCCNC(=O)NCCOCCOCCNS(=O)(=O)c2ccc(O[C@H]3c4cc(Cl)cc(C)c4C[C@@H]3N3CCC[C@@H](N(C)C)C3)c(C)c2)ccc1O[C@H]1c2cc(Cl)cc(C)c2C[C@@H]1N1CCC[C@@H](N(C)C)C1` [Example 29] yielded an inhibition at 1 µM [1] of over 70% and an inhibition at 1 µM [2] of over 70%.
With `O=C(NCCCCNC(=O)NCCOCCOCCNS(=O)(=O)c1ccc(O[C@H]2c3cc(Cl)cc(Cl)c3C[C@@H]2N2CCNCC2)cc1)NCCOCCOCCNS(=O)(=O)c1ccc(O[C@H]2c3cc(Cl)cc(Cl)c3C[C@@H]2N2CCNCC2)cc1` [Example 31, 3-[2-(2-[2-[(4-[[(1S,2S)-4,6-Dichloro-2-(piperazin-1-yl)-2,3-dihydro-1H-inden-1-yl]oxy]benzene)sulfonamido]ethoxy]ethoxy)ethyl]-1-[4-([[2-(2-[2-[(4-[[(1S,2S)-4,6-dichloro-2-(piperazin-1-yl)-2,3-dihydro-1H-inden-1-yl]oxy]benzene)sulfonamido]ethoxy]ethoxy)ethyl]carbamoyl]amino)butyl]urea; bis(trifluoroacetic acid)] the inhibition at 1 µM [1] was over 70% and the inhibition at 1 µM [2] was over 70%.
In the case of `Cc1cc(S(=O)(=O)NCCOCCOCCNC(=O)NCCCCNC(=O)NCCOCCOCCNS(=O)(=O)c2ccc(O[C@H]3c4cc(Cl)cc(Cl)c4C[C@@H]3N3CCNCC3)c(C)c2)ccc1O[C@H]1c2cc(Cl)cc(Cl)c2C[C@@H]1N1CCNCC1` [Example 32, 3-[2-(2-[2-[(4-[[(1S,2S)-4,6-Dichloro-2-(piperazin-1-yl)-2,3-dihydro-1H-inden-1-yl]oxy]-3-methylbenzene)sulfonamido]ethoxy]ethoxy)ethyl]-1-[4-([[2-(2-[2-[(4-[[(1S,2S)-4,6-dichloro-2-(piperazin-1-yl)-2,3-dihydro-1H-inden-1-yl]oxy]-3-methylbenzene)sulfonamido]ethoxy]ethoxy)ethyl]carbamoyl]amino)butyl]urea; bis(trifluoroacetic acid)], the inhibition at 1 µM [1] is reported as over 70% and the inhibition at 1 µM [2] is reported as over 70%.
Compound `O=C(NCCCCNC(=O)NCCOCCOCCNS(=O)(=O)c1ccc(O[C@H]2c3cc(Cl)cc(Cl)c3C[C@@H]2N2CCNCC2)c(F)c1)NCCOCCOCCNS(=O)(=O)c1ccc(O[C@H]2c3cc(Cl)cc(Cl)c3C[C@@H]2N2CCNCC2)c(F)c1` [Example 33, 3-[2-(2-[2-[(4-[[(1S,2S)-4,6-Dichloro-2-(piperazin-1-yl)-2,3-dihydro-1H-inden-1-yl]oxy]-3-fluorobenzene)sulfonamido]ethoxy]ethoxy)ethyl]-1-[4-[[(2-(2-[2-[(4-[[(1S,2S)-4,6-dichloro-2-(piperazin-1-yl)-2,3-dihydro-1H-inden-1-y]oxy]-3-fluorobenzene)sulfonamido]ethoxy]ethoxy)ethyl]carbamoyl]amino)butyl]urea; bis(trifluoroacetic acid)] has an inhibition at 1 µM [1] of over 70% and an inhibition at 1 µM [2] of over 70%.
Compound `Cc1cc(Cl)cc2c1C[C@H](N1CCNCC1)[C@H]2Oc1ccc(S(=O)(=O)NCCOCCOCCNC(=O)NCCCCNC(=O)NCCOCCOCCNS(=O)(=O)c2ccc(O[C@H]3c4cc(Cl)cc(C)c4C[C@@H]3N3CCNCC3)cc2)cc1` [Example 34, 3-[2-(2-[2-[(4-[[(1S,2S)-6-Chloro-4-methyl-2-(piperazin-1-yl)-2,3-dihydro-1H-inden-1-yl]oxy]benzene)sulfonamido]ethoxy]ethoxy)ethyl]-1-[4-([[2-(2-[2-[(4-[[(1S,2S)-6-chloro-4-methyl-2-(piperazin-1-yl)-2,3-dihydro-1H-inden-1-yl]oxy]benzene)sulfonamido]ethoxy]ethyl)ethyl]carbamoyl]amino)butyl]urea; bis(trifluoroacetic acid)] has an inhibition at 1 µM [1] of 50 to 70% and an inhibition at 1 µM [2] of 50 to 70%.
In the case of `Cc1cc(S(=O)(=O)NCCOCCOCCNC(=O)NCCCCNC(=O)NCCOCCOCCNS(=O)(=O)c2ccc(O[C@H]3c4cc(Cl)cc(C)c4C[C@@H]3N3CCNCC3)c(C)c2)ccc1O[C@H]1c2cc(Cl)cc(C)c2C[C@@H]1N1CCNCC1` [Example 35, 3-[2-(2-[2-[(4-[[(1S,2S)-6-Chloro-4-methyl-2-(piperazin-1-yl)-2,3-dihydro-1H-inden-1-yl]oxy]-3-methylbenzene)sulfonamido]ethoxy]ethoxy)ethyl]-1-[4-([[2-(2-[2-[(4-[[(1S,2S)-6-chloro-4-methyl-2-(piperazin-1-yl)-2,3-dihydro-1H-inden-1-yl]oxy]-3-methylbenzene)sulfonamido]ethoxy]ethoxy)ethyl]carbamoyl]amino)butyl]urea; bis(trifluoroacetic acid)], the inhibition at 1 µM [1] is reported as over 70% and the inhibition at 1 µM [2] is reported as over 70%.
`Cc1cc(Cl)cc2c1C[C@H](N1CCNCC1)[C@H]2Oc1ccc(S(=O)(=O)NCCOCCOCCNC(=O)NCCCCNC(=O)NCCOCCOCCNS(=O)(=O)c2ccc(O[C@H]3c4cc(Cl)cc(C)c4C[C@@H]3N3CCNCC3)c(F)c2)cc1F` [Example 36, 3-[2-(2-[2-[(4-[[(1S,2S)-6-Chloro-4-methyl-2-(piperazin-1-yl)-2,3-dihydro-1H-inden-1-yl]oxy]-3-fluorobenzene)sulfonamido]ethoxy]ethoxy)ethyl]-1-[4-([[2-(2-[2-[(4-[[(1S,2S)-6-chloro-4-methyl-2-(piperazin-1-yl)-2,3-dihydro-1H-inden-1-yl]oxy]-3-fluorobenzene)sulfonamido]ethoxy]ethoxy)ethyl]carbamoyl]amino)butyl]urea; bis(trifluoroacetic acid)] showed an inhibition at 1 µM [1] of over 70% and an inhibition at 1 µM [2] of over 70%.
Work on `N#Cc1cc(Cl)cc2c1C[C@H](N1CCNCC1)[C@H]2Oc1ccc(S(=O)(=O)NCCOCCOCCNC(=O)NCCCCNC(=O)NCCOCCOCCNS(=O)(=O)c2ccc(O[C@H]3c4cc(Cl)cc(C#N)c4C[C@@H]3N3CCNCC3)cc2)cc1` [Example 41, 3-[2-(2-[2-[(4-[[(1S,2S)-6-Chloro-4-cyano-2-(piperazin-1-yl)-2,3-dihydro-1H-inden-1-yl]oxy]benzene)sulfonamido]ethoxy]ethoxy)ethyl]-1-[4-([[2-(2-[2-[(4-[[(1S,2S)-6-chloro-4-cyano-2-(piperazin-1-yl)-2,3-dihydro-1H-inden-1-yl]oxy]benzene)sulfonamido]ethoxy]ethoxy)ethyl]carbamoyl]amino)butyl]urea; bis(trifluoroacetic acid)] yielded an inhibition at 1 µM [1] of 50 to 70% and an inhibition at 1 µM [2] of over 70%.
